Tested on: carrageenan-induced hind paw edema
Assay: carrageenan-induced hind paw edema (anti-inflammatory effect in vivo)
Set-up: species or system Wistar rats
Settings: for time up to which the anti-inflammatory effect increased: after oral administration, diclofenac 4 mg/kg, Zn(II) complex 10 mg/kg, measured at 1-6 hours; for percent inhibition of inflammation (paw edema) vs control group: male Wistar rats, half an hour before carrageenan; for anti-inflammatory effect in vivo (in words): Wistar rats, 10 mg/kg
Method: The crystalline zinc complex was evaluated for anti-inflammatory effects in vivo in Wistar rats, compared to the known NSAID diclofenac as a standard treatment.
Eighteen male Wistar rats (weighing from 200-250 g) were obtained from the “Animal Care and Use Center of College of Pharmacy at King Saud University, Riyadh, Saudi Arabia”. Institutional guidelines were followed for these studies. All rats were provided standard laboratory conditions of “temperature and relative humidity. The rats were kept in plastic cages and given free access to standard laboratory pellet diet and water ad libitum.
The anti-inflammatory studies were performed by the standard carrageenan-induced hind paw edema method of inducing acute swelling, known in the industry and widely reported in the literature. The rats were randomly divided into 3 groups of 6 rats. Group I rats were given carrageenan only, and served as control group. Group II and III rats were given standard diclofenac and the studied Zn(II) complex, respectively.
The standard diclofenac (4 mg/kg) and the Zn(II) complex (10 mg/kg) were administered orally half an hour before sub plantar injection of carrageenan in the right paw. Paw edema was induced by injecting 0.1 ml of a 1% w/v suspension of carrageenan in purified water. The initial and final paw volume of each rat was measured at regular interval of time (1, 2, 3, 4, 5 and 6 hours) after injection, using a digital Plethysmometer (Ugo Basile, Italy). The percent inhibition of edema produced by the diclofenac- and zinc(II) complex-treated groups was determined with respect to the control group, using the standard formula used with this type of test, as known in the industry and reported in the literature. The inhibition of inflammation was analyzed statistically by applying a student t-test, using the MS Excel 2010 spreadsheet program. A P value <0.05 was considered statistically significant.

Molecule	time up to which the anti-inflammatory effect increased	percent inhibition of inflammation (paw edema) vs control group (4 mg/kg oral, 5 hours past oral administration) [%]	anti-inflammatory effect in vivo (in words) (10 mg/kg oral)	anti-inflammatory effect in vivo (in words) (10 mg/kg oral, listed as zinc complex)	percent inhibition of inflammation (paw edema) vs control group (10 mg/kg oral, 6 hours post oral administration) [%]
O=C(O)Cc1ccccc1Nc1c(Cl)cccc1Cl [diclofenac, reference compound]	about 5 hours	82.31			
bis(chloro)-(N,N′-(2,2-dimethylpropane-1,3-diyl)bis(1-(2-chlorophenyl)methanimine))-zinc(II) complex [Zn(II) complex]	about 6 hours		good anti-inflammatory effect	good degree of anti-inflammatory activity	56.39
